Data on 11 compounds can be found in patent US8569314B2, “Triazolo and tetrazolo pyrimidine derivatives as HNE inhibitors for treating COPD” (Bayer Intellectual Property GmbH, priority 2009, dated 2013).

Assay [1] addresses human neutrophil elastase (HNE) (Homo sapiens (Human), UniProt P08246). Nature of the assay: In vitro HNE inhibition assay (fluorogenic peptide substrate MeOSuc-Ala-Ala-Pro-Val-AMC). It counts as biochemical. Conditions: HNE concentration of 80 pM; 37° C., 2 hours. An excerpt:
B-1. In Vitro HNE Inhibition Assay
The potency of the compounds of the invention is ascertained in an in vitro inhibition assay. The HNE-mediated amidolytic cleavage of a suitable peptide substrate leads in this connection to an increase in the fluorescent light. The signal intensity of the fluorescent light is directly proportional to the enzyme activity. The effective concentration of a test compound at which half the enzyme is inhibited (50% signal intensity of the fluorescent light) is indicated as IC50.
Enzyme (80 pM HNE; from Serva, Heidelberg) and substrate (20 μM MeOSuc-Ala-Ala-Pro-Val-AMC; from Bachem, Weil am Rhein) are incubated in an assay volume of in total 50 μl of assay buffer (0.1 M HEPES pH 7.4, 0.5 M NaCl, 0.1% w/v BSA, 1% v/v DMSO) in a 384-well microtiter plate in the presence and absence of the test substance at 37° C. for 2 hours. The intensity of the fluorescent light from the assay mixtures is measured (Ex. 380 nm, Em. 460 nm). The IC50 values are determined by plotting the intensity of the fluorescent light against the active substance concentration.

Another assay deals with pancreas elastase (Sus scrofa (Pig), UniProt P00772). Particulars: cited from earlier work.
Sequence of pancreas elastase (P00772 27-266): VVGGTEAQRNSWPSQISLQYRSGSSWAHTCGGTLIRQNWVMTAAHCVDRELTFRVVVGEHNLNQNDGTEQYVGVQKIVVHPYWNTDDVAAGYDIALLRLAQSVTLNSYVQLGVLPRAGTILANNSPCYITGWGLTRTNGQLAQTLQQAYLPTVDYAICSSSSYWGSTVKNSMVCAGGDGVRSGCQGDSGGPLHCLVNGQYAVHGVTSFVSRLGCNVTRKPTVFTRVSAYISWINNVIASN

Structures can show the parent of a compound that is named as a salt.

Sequence of human neutrophil elastase (HNE) (P08246 30-267): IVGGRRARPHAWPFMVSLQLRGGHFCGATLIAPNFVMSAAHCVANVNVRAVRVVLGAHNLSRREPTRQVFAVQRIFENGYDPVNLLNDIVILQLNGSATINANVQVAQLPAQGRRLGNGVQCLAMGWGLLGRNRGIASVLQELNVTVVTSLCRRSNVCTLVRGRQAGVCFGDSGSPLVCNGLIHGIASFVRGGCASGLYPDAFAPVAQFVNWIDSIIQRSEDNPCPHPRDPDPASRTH

In turn, `CC1=C(C#N)C(c2ccc(C#N)cc2S(C)(=O)=O)n2nc(N3C(=O)c4ccccc4C3=O)nc2N1c1cccc(C(F)(F)F)c1` (racemic) [Example 5, (rac)-7-[4-Cyano-2-(methylsulfonyl)phenyl]-2-(1,3-dioxo-1,3-dihydro-2H-isoindol-2-yl)-5-methyl-4-[3-(trifluoromethyl)phenyl]-4,7-dihydro[1,2,4]triazolo[1,5-a]pyrimidine-6-carbonitrile] showed an IC50 in assay [1] of less than 0.3 nM.

For `CC1=C(C#N)C(c2ccc(C#N)cc2)n2nc(C(C)C)nc2N1c1cccc(C(F)(F)F)c1` (racemic) [Example 67, (rac)-7-(4-Cyanophenyl)-5-methyl-2-(1-methylethyl)-4-[3-(trifluoromethyl)phenyl]-4,7-dihydro-[1,2,4]triazolo[1,5-a]pyrimidine-6-carbonitrile], the midpoint of inhibition in assay [1], the IC50, lay at 85 nM.

`CCOC(=O)C1=C(C)N(c2cccc(C(F)(F)F)c2)c2nc3cncnc3n2C1c1ccc(C#N)cc1` (racemic) [Example 78, Ethyl(rac)-9-(4-cyanophenyl)-7-methyl-6-[3-(trifluoromethyl)phenyl]-6,9-dihydropyrimido[1,2-e]-purin-8-carboxylate] returned an IC50 in assay [1] of 3 nM.

`CC1=C(C#N)[C@@H](c2ccc(C#N)cc2S(C)(=O)=O)n2nc(N)nc2N1c1cccc(C(F)(F)F)c1` [Example 9, (7S)-2-Amino-7-[4-cyano-2-(methylsulfonyl)phenyl]-5-methyl-4-[3-(trifluoromethyl)phenyl]-4,7-dihydro[1,2,4]triazolo[1,5-a]pyrimidine-6-carbonitrile hydrochloride] returned an IC50 in assay [1] of less than 0.3 nM.

Compound `CC1=C(C#N)[C@@H](c2ccc(C#N)cc2)n2nc(NC(=O)C3CCCCC3)nc2N1c1cccc(C(F)(F)F)c1` [Example 23, N-{(7R)-6-Cyano-7-(4-cyanophenyl)-5-methyl-4-[3-(trifluoromethyl)phenyl]-4,7-dihydro[1,2,4]triazolo[1,5-a]pyrimidin-2-yl}cyclohexanecarboxamide] had an IC50 in assay [1] of less than 0.3 nM.

In the case of `CC1=C(C#N)[C@@H](c2ccc(C#N)cc2S(C)(=O)=O)n2nc(NC(=O)C3CC3)nc2N1c1cccc(C(F)(F)F)c1` [Example 35, N-{(7S)-6-Cyano-7-[4-cyano-2-(methylsulfonyl)phenyl]-5-methyl-4-[3-(trifluoromethyl)phenyl]-4,7-dihydro[1,2,4]triazolo[1,5-a]pyrimidin-2-yl}cyclopropanecarboxamide], the IC50 in assay [1] is less than 0.3 nM.

For the compound `CCOC(=O)Nc1nc2n(n1)C(c1ccc(C#N)cc1)C(C(=O)OCC)=C(C)N2c1cccc(C(F)(F)F)c1` (centres unmarked) [Example 50, Ethyl 7-(4-cyanophenyl)-2-[(ethoxycarbonyl)amino]-5-methyl-4-[3-(trifluoromethyl)phenyl]-4,7-dihydro[1,2,4]triazolo[1,5-a]pyrimidine-6-carboxylate], the IC50 in assay [1] was less than 0.3 nM.

On to `CC1=C(C#N)[C@@H](c2ccc(C#N)cc2)n2nc(NC(=O)NCCO)nc2N1c1cccc(C(F)(F)F)c1` [Example 53, 1-{(7R)-6-Cyano-7-(4-cyanophenyl)-5-methyl-4-[3-(trifluoromethyl)phenyl]-4,7-dihydro[1,2,4]triazolo[1,5-a]pyrimidin-2-yl}-3-(2-hydroxyethyl)urea], for which, in assay [1], the IC50 was less than 0.3 nM.

`CCNc1nc2n(n1)[C@H](c1ccc(C#N)cc1)C(C#N)=C(C)N2c1cccc(C(F)(F)F)c1` [Example 56, (7R)-7-(4-Cyanophenyl)-2-(ethylamino)-5-methyl-4-[3-(trifluoromethyl)phenyl]-4,7-dihydro-[1,2,4]triazolo[1,5-a]pyrimidine-6-carbonitrile] came in with an IC50 in assay [1] of less than 0.3 nM.

With `CCOC(=O)C1=C(C)N(c2cccc(C(F)(F)F)c2)c2nccn2[C@@H]1c1ccc(C#N)cc1` [Example 90, Ethyl (5R)-5-(4-cyanophenyl)-7-methyl-8-[3-(trifluoromethyl)phenyl]-5,8-dihydroimidazo[1,2-a]-pyrimidine-6-carboxylate], in assay [1], the midpoint of inhibition, the IC50, lay at 6.5 nM.

As to `CC(C)(C)C(=O)Oc1ccc(S(=O)(=O)Nc2ccccc2C(=O)NCC(=O)O)cc1` [sivelestat], the IC50 at pancreas elastase is 5600 nM.
